Laboratory results reported in ChEMBL document CHEMBL1155842, “Imidazole piperazines: SAR and development of a potent class of cyclin-dependent kinase inhibitors with a novel binding mode” (Bioorg Med Chem Lett, 2008).
≈ marks a conversion by molar mass, not a printed value.

Columns and labels:
[1] = molecular target: Cyclin-dependent kinase 2 (Homo sapiens, UniProt P24941); test: Inhibition of CDK2/Cyclin E
MCF7 = test: cells; conditions: Homo sapiens, MCF7, 48 h
Description: Antiproliferative activity against human MCF7 cells after 48 hrs

[2] = Protein binding in rat plasma assessed as unbound fraction; assay type: ADME, cell-free
[3] = Aqueous solubility at pH 7.4; conditions: buffer
[4] = Lipophilicity Log D at pH 7.4; conditions: buffer
[5] = AUC in rat at 2 mg/kg, po; assay type: ADME, organism-based; parameters: dose 2 mg/kg, route oral; conditions: plasma
[6] = Volume of distribution at steady state in rat; assay type: ADME, organism-based; conditions: in vivo, read-out: Vdss
[7] = Plasma clearance in rat; assay type: ADME, organism-based
[8] = Oral bioavailability in rat; assay type: ADME, organism-based; conditions: in vivo
[9] = Volume of distribution at steady state in dog; assay type: ADME, organism-based, Canis lupus familiaris; conditions: in vivo, read-out: Vdss
[10] = Plasma clearance in dog; assay type: ADME, organism-based, Canis lupus familiaris
[11] = Oral bioavailability in dog; assay type: ADME, organism-based, Canis lupus familiaris; conditions: in vivo
SW-620 [12] = test: animal or person; conditions: Mus musculus, SW-620, po, 672 h, read-out: INH
Description: Antitumor activity against human SW620 cells xenografted nude mouse assessed as tumor growth inhibition at 12.5 mg/kg, po once daily for 28 days

[13] = molecular target: Voltage-gated inwardly rectifying potassium channel KCNH2 (Homo sapiens, UniProt Q12809)
SW-620 [14] = test: Antitumor activity against human SW620 cells xenografted nude mouse assessed as tumor growth inhibition at 7.5 mg/kg, po once daily for 28 days; conditions: SW-620, po, 672 h, read-out: INH

Sequence of Voltage-gated inwardly rectifying potassium channel KCNH2 (Q12809 whole entry): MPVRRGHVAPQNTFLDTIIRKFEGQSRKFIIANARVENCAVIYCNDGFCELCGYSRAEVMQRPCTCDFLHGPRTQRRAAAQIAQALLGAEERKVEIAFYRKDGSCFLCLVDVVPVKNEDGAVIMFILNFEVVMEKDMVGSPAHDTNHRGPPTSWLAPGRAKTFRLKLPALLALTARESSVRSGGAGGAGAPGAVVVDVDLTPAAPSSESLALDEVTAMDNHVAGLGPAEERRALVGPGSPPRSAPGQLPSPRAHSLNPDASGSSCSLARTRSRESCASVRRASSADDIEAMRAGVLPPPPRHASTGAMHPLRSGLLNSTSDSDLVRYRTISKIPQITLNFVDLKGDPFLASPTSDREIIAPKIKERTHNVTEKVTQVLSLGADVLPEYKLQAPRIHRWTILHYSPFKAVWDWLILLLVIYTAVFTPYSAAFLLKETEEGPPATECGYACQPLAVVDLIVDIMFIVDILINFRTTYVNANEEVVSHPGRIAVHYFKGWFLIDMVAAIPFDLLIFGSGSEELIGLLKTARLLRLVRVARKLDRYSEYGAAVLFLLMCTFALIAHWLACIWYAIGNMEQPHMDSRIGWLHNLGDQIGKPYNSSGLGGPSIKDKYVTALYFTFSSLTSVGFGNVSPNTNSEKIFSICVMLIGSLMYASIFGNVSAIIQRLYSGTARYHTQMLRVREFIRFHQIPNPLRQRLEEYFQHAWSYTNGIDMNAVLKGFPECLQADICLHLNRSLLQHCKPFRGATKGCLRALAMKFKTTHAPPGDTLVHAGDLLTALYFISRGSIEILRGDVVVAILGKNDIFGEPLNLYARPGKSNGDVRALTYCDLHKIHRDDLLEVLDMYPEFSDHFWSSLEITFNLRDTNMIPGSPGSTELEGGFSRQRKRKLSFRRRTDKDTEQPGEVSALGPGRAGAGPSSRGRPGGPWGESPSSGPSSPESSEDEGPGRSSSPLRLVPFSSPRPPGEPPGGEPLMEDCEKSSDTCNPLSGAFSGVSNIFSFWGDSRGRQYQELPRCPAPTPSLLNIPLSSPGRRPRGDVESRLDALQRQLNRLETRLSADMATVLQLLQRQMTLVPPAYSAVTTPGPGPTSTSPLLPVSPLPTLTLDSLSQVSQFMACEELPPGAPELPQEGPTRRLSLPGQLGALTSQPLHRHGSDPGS

Row | Structure (SMILES) | IC50 [1] | IC50 (MCF7) | solubility [3] | logD [4] | AUC [5] | further results
1 | Cc1ncc(-c2ccnc(Nc3ccc(C#N)cc3)n2)n1C(C)C | < 3 nM | 70 nM |  |  |  | 
2 | Cc1ncc(-c2nc(Nc3ccc(N4CCC[C@H]4C(=O)N(C)C)cc3)ncc2F)n1C(C)C | 46 nM |  |  |  |  | 
3 | Cc1ncc(-c2ccnc(Nc3ccc(N(C)C)cc3)n2)n1C(C)C | 24 nM | 68 nM |  |  |  | 
4 | CC(=O)NC1CN(c2ccc(Nc3ncc(F)c(-c4cnc(C)n4C(C)C)n3)cc2)C1 | 0.5 nM |  | 120 µM (≈ 50.8 µg/mL) | 2.8 |  | fraction unbound [2]: 0.05
5 | CC(=O)N[C@@H]1CCN(c2ccc(Nc3ncc(F)c(-c4cnc(C)n4C(C)C)n3)cc2)C1 | > 0.3 nM | 140 nM |  |  |  | 
6 | Cc1ncc(-c2nc(Nc3ccc(N4CCN(C(=O)CO)CC4)cc3)ncc2F)n1C(C)C | 6 nM | 75 nM | 160 µM (≈ 72.6 µg/mL) | 2.2 | 0.17 µM·h | Vd [6]: 1 L/kg; clearance [7]: 16 mL/min/kg; bioavailability [8]: 67%; Vd [9]: 3.5 L/kg; clearance [10]: 24 mL/min/kg; bioavailability [11]: 31%; inhibition in vivo at 12.5 mg/kg (SW-620 [12]): 89%
7 | Cc1ncc(-c2ccnc(Nc3ccc(N4CCN(S(C)(=O)=O)CC4)cc3)n2)n1C(C)C | < 3 nM | 72 nM | 9 µM (≈ 4.1 µg/mL) | 2.6 | 0.08 µM·h | fraction unbound [2]: 0.08; IC50 [13]: 5.5 µM
8 | CC(=O)N1CCN(c2ccc(Nc3nccc(-c4cnc(C)n4C(C)C)n3)cc2)CC1 | < 3 nM | 145 nM |  |  |  | 
9 | Cc1ncc(-c2ccnc(Nc3ccc(N4CCN(S(=O)(=O)CCN(C)C)CC4)cc3)n2)n1C(C)C | 3 nM | < 39 nM |  | 2.5 |  | IC50 [13]: 18 µM
10 | Cc1ncc(-c2ccnc(Nc3ccc(N4CCN(C(=O)CO)CC4)cc3)n2)n1C(C)C |  |  |  |  | 0.4 µM·h | fraction unbound [2]: 0.22; Vd [6]: 2.5 L/kg; clearance [7]: 15 mL/min/kg; bioavailability [8]: 59%; Vd [9]: 3.4 L/kg; clearance [10]: 19 mL/min/kg; bioavailability [11]: 79%; inhibition in vivo at 7.5 mg/kg (SW-620 [14]): 80%
11 | Cc1ncc(-c2ccnc(Nc3ccc(N4CCN(C(=O)CN(C)C)CC4)cc3)n2)n1C(C)C | 16 nM | < 27 nM | > 3400 µM | 3.3 |  | fraction unbound [2]: 0.4; IC50 [13]: > 32 µM
12 | CCN(CC)CC(=O)N1CCN(c2ccc(Nc3nccc(-c4cnc(C)n4C(C)C)n3)cc2)CC1 |  | < 22 nM | > 3700 µM |  |  | 
13 | Cc1ncc(-c2ccnc(Nc3ccc(F)cc3)n2)n1C(C)C | 3 nM | 100 nM |  |  |  | 
14 | Cc1ncc(-c2ccnc(Nc3ccc(Cl)cc3)n2)n1C(C)C | < 3 nM | 72 nM |  |  |  | 
15 | COCCNS(=O)(=O)c1ccc(Nc2nccc(-c3cnc(C)n3C(C)C)n2)cc1 |  | 45 nM |  |  |  | 
16 | COc1ccc(Nc2nccc(-c3cnc(C)n3C(C)C)n2)cc1 | 8 nM | 72 nM |  |  |  | 
17 | COCCS(=O)(=O)N1CCN(c2ccc(Nc3nccc(-c4cnc(C)n4C(C)C)n3)cc2)CC1 | < 3 nM | 93 nM |  |  |  | 
18 | Cc1ncc(-c2ccnc(Nc3ccc(N4CCOCC4)cc3)n2)n1C(C)C | 9 nM | 290 nM | 56 µM (≈ 21.2 µg/mL) | 2.9 | 0.16 µM·h | 
19 | Cc1ncc(-c2nc(Nc3ccc(N4CCOCC4)cc3)ncc2F)n1C(C)C | 8 nM | 110 nM | 120 µM (≈ 47.6 µg/mL) | 3 | 0.19 µM·h | Vd [6]: 1.3 L/kg; clearance [7]: 26 mL/min/kg; bioavailability [8]: 34%; Vd [9]: 2.9 L/kg; clearance [10]: 140 mL/min/kg; bioavailability [11]: 3%; IC50 [13]: 11 µM
20 | Cc1ncc(-c2ccnc(Nc3ccc(N4CCN(C(=O)[C@H](C)O)CC4)cc3)n2)n1C(C)C | 17 nM | 220 nM |  |  | 0.16 µM·h | IC50 [13]: > 24 µM
